# Reference: patent US8685636B2, “Heparin-insensitive method for determining direct coagulation factor inhibitors” (Siemens Healthcare Diagnostics Products GmbH, priority 2011, dated 2014)
# What was measured:
# human factor Xa = human factor Xa (Homo sapiens, UniProt P00742); assay: Chromogenic factor Xa inhibition assay in plasma samples pretreated with oxidizing agent (sodium hypochlorite) and neutralizing agent (HCl); format: biochemical; details: for ΔA/min (conversion of chromogenic factor Xa substrate): plasma without inhibitor 2268
# Experimental: (§1) Various amounts of direct coagulation factor inhibitors (rivaroxaban as direct factor Xa inhibitor, argatroban as direct thrombin inhibitor) or indirect coagulation factor inhibitors (fondaparinux pentasaccharide [Arixtra®], high-molecular-weight heparin [HMWH]) were added to normal human plasma.
# (§2) 20 μl of plasma sample were mixed with 10 μl of a 0.1% strength hypochlorous acid (sodium hypochlorite) as oxidizing agent, and the reaction mix was incubated at +37° C. for 30 seconds. Subsequently, 10 μl of a 0.1% strength hydrochloric acid solution were added to the reaction mix to neutralize the oxidizing agent, and the reaction mix was incubated at +37° C. for 30 seconds. Subsequently, 95 μl of factor Xa reagent (human factor Xa, 1 U/ml in TRIS buffer, pH 8.0) were added to the reaction mix, and the reaction mix was incubated at +37° C. for 30 seconds. Subsequently, 80 μl of a chromogenic factor Xa substrate (Z-D-Leu-Gly-Arg-ANBA-methylamide, 4 mmol/l) were added to the reaction mix, and conversion of the substrate (in ΔA/time) was determined at a wavelength of 405 nm in an automated coagulation measurement instrument (BCS® System, Siemens Healthcare Diagnostics).
# (§3) The reduction in substrate conversion compared to plasma without any inhibitors correlates with the amount of inhibitor in the sample.
# bovine thrombin = bovine thrombin (Bos taurus, UniProt P00735); assay: Chromogenic thrombin inhibition assay in plasma samples pretreated with oxidizing agent (sodium hypochlorite) and neutralizing agent (HCl); format: biochemical; details: for ΔA/min (conversion of chromogenic thrombin substrate): plasma without inhibitor 2623
# Experimental: as §1
# as §2, with “140” for “95”, “thrombin” for “factor Xa”, “(bovine thrombin, 6 U/ml)” for “(human factor Xa, 1 U/ml in TRIS buffer, pH 8.0)”, “50” for “80”, “(Tos-L-Gly-Pro-Arg-ANBA-isopropylamide,” for “(Z-D-Leu-Gly-Arg-ANBA-methylamide,”
# as §3
# [1] = 200 ng/ml in normal human plasma, pretreated sample
# [2] = pretreatment with hypochlorite then HCl
# [3] = plasma samples containing the substance
# [4] = 20 μg/ml in normal human plasma, pretreated sample
# [5] = 200 μg/ml in normal human plasma, pretreated sample
# Chain of human factor Xa (P00742 235-488 limits assumed): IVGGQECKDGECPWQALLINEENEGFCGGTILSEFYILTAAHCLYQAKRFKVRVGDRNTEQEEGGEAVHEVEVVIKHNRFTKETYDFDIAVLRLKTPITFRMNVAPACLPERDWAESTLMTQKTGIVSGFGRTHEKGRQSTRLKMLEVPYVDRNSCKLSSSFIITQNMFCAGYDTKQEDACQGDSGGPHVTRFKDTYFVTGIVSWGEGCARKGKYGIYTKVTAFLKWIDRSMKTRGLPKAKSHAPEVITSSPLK
# Chain of human factor Xa (P00742 41-179 partner limits assumed): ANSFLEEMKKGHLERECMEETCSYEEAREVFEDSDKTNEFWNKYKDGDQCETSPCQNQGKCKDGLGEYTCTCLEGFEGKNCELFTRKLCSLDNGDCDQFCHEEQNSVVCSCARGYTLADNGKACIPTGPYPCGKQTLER
smiles,measurement,setting,value
O=C(NC[C@H]1CN(c2ccc(N3CCOCC3=O)cc2)C(=O)O1)c1ccc(Cl)s1 [rivaroxaban],ΔA/min (conversion of chromogenic factor Xa substrate),human factor Xa; [1],1296 ΔA/min
same,inhibition at 0.2 µg/mL,"human factor Xa; 200 ng/ml in normal human plasma, pretreated sample, read-out: FXa inhibition",43%
same,effect of pretreatment of the samples on the inhibition of factor Xa by the substance (in words),human factor Xa; [2],not impaired
same,inhibition at 0.2 µg/mL,bovine thrombin; [1],0%
same,ΔA/min (conversion of chromogenic thrombin substrate),bovine thrombin; [1],2612 ΔA/min
same,thrombin inhibition (in words),bovine thrombin; [3],thrombin inhibition does not take place
CC1CNc2c(cccc2S(=O)(=O)N[C@@H](CCCNC(=N)N)C(=O)N2CC[C@@H](C)C[C@@H]2C(=O)O)C1 (stereo partly drawn) [argatroban],ΔA/min (conversion of chromogenic factor Xa substrate),human factor Xa; [4],2176 ΔA/min
same,inhibition at 20 µg/mL,"human factor Xa; 20 μg/ml in normal human plasma, pretreated sample, read-out: FXa inhibition",4%
same,factor Xa inhibition (in words),human factor Xa; [3],factor Xa inhibition does not take place
same,inhibition at 20 µg/mL,bovine thrombin; [4],95%
same,ΔA/min (conversion of chromogenic thrombin substrate),bovine thrombin; [4],140 ΔA/min
same,inhibition at 200 µg/mL,bovine thrombin; [5],99%
same,ΔA/min (conversion of chromogenic thrombin substrate),bovine thrombin; [5],36 ΔA/min
same,effect of pretreatment of the samples on the inhibition of thrombin by the substance (in words),bovine thrombin; [2],not impaired
"CO[C@H]1O[C@H](COS(=O)(=O)O)[C@@H](O[C@@H]2O[C@@H](C(=O)O)[C@@H](O[C@H]3O[C@H](COS(=O)(=O)O)[C@@H](O[C@@H]4O[C@H](C(=O)O)[C@@H](O[C@H]5O[C@H](COS(=O)(=O)O)[C@@H](O)[C@H](O)[C@H]5NS(=O)(=O)O)[C@H](O)[C@H]4O)[C@H](OS(=O)(=O)O)[C@H]3NS(=O)(=O)O)[C@H](O)[C@H]2OS(=O)(=O)O)[C@H](O)[C@H]1NS(=O)(=O)O [Arixtra, fondaparinux]",inhibition at 1 µg/mL,"human factor Xa; 1 μg/ml in normal human plasma, pretreated sample, read-out: FXa inhibition",4%
same,inhibition at 4 µg/mL,"human factor Xa; 4 μg/ml in normal human plasma, pretreated sample, read-out: FXa inhibition",3%
same,inhibition at 1 µg/mL,"bovine thrombin; 1 μg/ml in normal human plasma, pretreated sample",5%
same,inhibition at 4 µg/mL,"bovine thrombin; 4 μg/ml in normal human plasma, pretreated sample",2%
